Assay results from EP0551518A1, “QUINOLINECARBOXYLIC ACID DERIVATIVE” (NIPPON SHINYAKU COMPANY, LIMITED, priority 1990, dated 1992).
Converted amounts (≈) assume the structure as drawn. Like-named read-outs stand apart in the source and are kept apart here.

Columns and labels:
Assay type in all cases: cell-based
[1] = tested on: Bacillus subtilis ATCC 6633; assay: Determination of minimal inhibitory concentration of growth (MIC)-1, agar plate dilution method; conditions: ATCC6633; Bacillus subtilis ATCC 6633; agar plate dilution, 10⁶ CFU/ml, 37°C, 18 hours; read-out: MIC
Procedure: (§1) Method: MIC was determined by the agar plate dilution method in accordance with the standard protocol of Japan Society of Chemotherapy (cf. Chemotherapy 29 (1), 76-79, 1981). Each bacterial culture obtained by 18-hour incubation in a sensitivity assay bouillon medium at 37°C was diluted to 10⁶ CFU/ml with the same medium. Using a microplanter, a sensitivity assay agar medium containing the test drug was inoculated with the diluted culture and incubated at 37°C for 18 hours. The MIC value was then determined. As reference drugs, 6-fluoro-1-methyl-4-oxo-7-(1-piperazinyl)-4H-[1,3]thiazeto[3,2-a]quinoline-3-carboxylic acid (referred to as control), ciprofloxacin (CPFX) and ofloxacin (OFLX) were used.

[2] = tested on: Enterococcus faecalis ATCC 29212; assay: as above; conditions: ATCC29212; Enterococcus faecalis ATCC 29212; agar plate dilution, 10⁶ CFU/ml, 37°C, 18 hours; read-out: MIC
Procedure: as §1

Escherichia coli KC-14 = assay: as above; conditions: Escherichia coli, KC14, 18 h, 10⁶ CFU/ml, 37°C, read-out: MIC
Procedure: as §1

[3] = tested on: Micrococcus luteus ATCC 9341; assay: as above; conditions: ATCC9341; Micrococcus luteus ATCC 9341; agar plate dilution, 10⁶ CFU/ml, 37°C, 18 hours; read-out: MIC
Procedure: as §1

Proteus vulgaris HX-19 = assay: as above; conditions: Proteus vulgaris, HX19, 18 h, Proteus vulgaris HX-19; agar plate dilution, 10⁶ CFU/ml, 37°C, 18 hours; read-out: MIC
Procedure: as §1

[4] = tested on: Pseudomonas aeruginosa IFO 3445; assay: as above; conditions: Pseudomonas aeruginosa, IFO3445, 18 h, Pseudomonas aeruginosa IFO 3445; agar plate dilution, 10⁶ CFU/ml, 37°C, 18 hours; read-out: MIC
Procedure: as §1

[5] = tested on: Staphylococcus aureus 209-P JC-1; assay: as above; conditions: Staphylococcus aureus 209-P JC-1, agar plate dilution, 10⁶ CFU/ml, 37°C, 18 hours
Procedure: as §1

[6] = tested on: Staphylococcus aureus OWPH 1984 (MRSA); assay: as above; conditions: Staphylococcus aureus, MRSA, 18 h, Staphylococcus aureus OWPH 1984 (MRSA); agar plate dilution, 10⁶ CFU/ml, 37°C, 18 hours; read-out: MIC
Procedure: as §1

[7] = tested on: Staphylococcus aureus OWPH 2125 (MRSA, PCA^r ); assay: as above; conditions: Staphylococcus aureus OWPH 2125 (MRSA, PCA^r), agar plate dilution, 10⁶ CFU/ml, 37°C, 18 hours
Procedure: as §1

[8] = tested on: Staphylococcus aureus Smith; assay: as above; conditions: Staphylococcus aureus Smith; agar plate dilution, 10⁶ CFU/ml, 37°C, 18 hours; read-out: MIC
Procedure: as §1

[9] = tested on: Staphylococcus epider-midis IFO 12993; assay: as above; conditions: Staphylococcus, IFO12993, 18 h, Staphylococcus epider-midis IFO 12993; agar plate dilution, 10⁶ CFU/ml, 37°C, 18 hours; read-out: MIC
Procedure: as §1

S. aureus OWPH 1770 = assay: Determination of minimal inhibitory concentration (MIC)-2, new quinolone-resistant MRSA; conditions: Staphylococcus aureus, OWPH1770, 18 h; S. aureus OWPH 1770, new quinolone-resistant and methicillin-resistant; same procedure as Test Example 1
Procedure: as §1
(§2) The antibacterial activity of the compounds obtained in Example 4, Example 25 and Example 26 of the present invention was assayed by the same procedure as in Test Example 1. As reference drugs, 6-fluoro-1-methyl-4-oxo-7-(1-piperazinyl)-4H-[1,3]-thiazeto[3,2-a]quinoline-3-carboxylic acid (referred to as Control), norfloxacin (NFLX) and tosufloxacin (TFLX) were used.

S. aureus OWPH 1773 = assay: as above; conditions: Staphylococcus aureus, OWPH1773, 18 h; S. aureus OWPH 1773, new quinolone-resistant and methicillin-resistant; same procedure as Test Example 1
Procedure: as §1, §2

S. aureus OWPH 1786 = assay: as above; conditions: Staphylococcus aureus, OWPH1786, 18 h; S. aureus OWPH 1786, new quinolone-resistant and methicillin-resistant; same procedure as Test Example 1
Procedure: as §1, §2

S. aureus OWPH 1792 = assay: as above; conditions: Staphylococcus aureus, OWPH1792, 18 h; S. aureus OWPH 1792, new quinolone-resistant and methicillin-resistant; same procedure as Test Example 1
Procedure: as §1, §2

S. aureus OWPH 1793 = assay: as above; conditions: Staphylococcus aureus, OWPH1793, 18 h; S. aureus OWPH 1793, new quinolone-resistant and methicillin-resistant; same procedure as Test Example 1
Procedure: as §1, §2

S. aureus OWPH 1796 = assay: as above; conditions: Staphylococcus aureus, OWPH1796, 18 h; S. aureus OWPH 1796, new quinolone-resistant and methicillin-resistant; same procedure as Test Example 1
Procedure: as §1, §2

S. aureus OWPH 1799 = assay: as above; conditions: Staphylococcus aureus, OWPH1799, 18 h; S. aureus OWPH 1799, new quinolone-resistant and methicillin-resistant; same procedure as Test Example 1
Procedure: as §1, §2

S. aureus OWPH 2124 = assay: as above; conditions: Staphylococcus aureus, OWPH2124, 18 h; S. aureus OWPH 2124, new quinolone-resistant and methicillin-resistant; same procedure as Test Example 1
Procedure: as §1, §2

S. aureus OWPH 2127 = assay: as above; conditions: Staphylococcus aureus, OWPH2127, 18 h; S. aureus OWPH 2127, new quinolone-resistant and methicillin-resistant; same procedure as Test Example 1
Procedure: as §1, §2

S. aureus OWPH 2128 = assay: as above; conditions: Staphylococcus aureus, OWPH2128, 18 h; S. aureus OWPH 2128, new quinolone-resistant and methicillin-resistant; same procedure as Test Example 1
Procedure: as §1, §2

S. aureus OWPH 2133 = assay: as above; conditions: Staphylococcus aureus, OWPH2133, 18 h; S. aureus OWPH 2133, new quinolone-resistant and methicillin-resistant; same procedure as Test Example 1
Procedure: as §1, §2

S. aureus OWPH 2134 = assay: as above; conditions: Staphylococcus aureus, OWPH2134, 18 h; S. aureus OWPH 2134, new quinolone-resistant and methicillin-resistant; same procedure as Test Example 1
Procedure: as §1, §2

S. aureus Sh 2 = assay: as above; conditions: Staphylococcus aureus, SH2, 18 h; S. aureus Sh 2, new quinolone-resistant and methicillin-resistant; same procedure as Test Example 1
Procedure: as §1, §2

S. aureus Sh 44 = assay: as above; conditions: Staphylococcus aureus, SH44, 18 h; S. aureus Sh 44, new quinolone-resistant and methicillin-resistant; same procedure as Test Example 1
Procedure: as §1, §2

S. aureus Sh 47 = assay: as above; conditions: Staphylococcus aureus, SH47, 18 h; S. aureus Sh 47, new quinolone-resistant and methicillin-resistant; same procedure as Test Example 1
Procedure: as §1, §2

S. aureus Sh 54 = assay: as above; conditions: Staphylococcus aureus, SH54, 18 h; S. aureus Sh 54, new quinolone-resistant and methicillin-resistant; same procedure as Test Example 1
Procedure: as §1, §2

S. aureus Sh 8 = assay: as above; conditions: Staphylococcus aureus, SH8, 18 h; S. aureus Sh 8, new quinolone-resistant and methicillin-resistant; same procedure as Test Example 1
Procedure: as §1, §2

Compound | MIC [1] | MIC [2] | MIC (Escherichia coli KC-14) | MIC (S. aureus OWPH 1770) | MIC (S. aureus OWPH 1773) | MIC (S. aureus OWPH 1786) | MIC (S. aureus OWPH 1792) | MIC (S. aureus OWPH 1793) | MIC (S. aureus OWPH 1796) | MIC (S. aureus OWPH 1799) | MIC (S. aureus OWPH 2124) | MIC (S. aureus OWPH 2127) | MIC (S. aureus OWPH 2128) | MIC (S. aureus OWPH 2133) | MIC (S. aureus OWPH 2134) | MIC (S. aureus Sh 2) | MIC (S. aureus Sh 44) | MIC (S. aureus Sh 47) | MIC (S. aureus Sh 54) | MIC (S. aureus Sh 8) | other results
CC1Sc2c(C(=O)O)c(=O)c3cc(F)c(N4CCNCC4)cc3n21 (stereo not shown) [Control, 6-fluoro-1-methyl-4-oxo-7-(1-piperazinyl)-4H-[1,3]thiazeto[3,2-a]quinoline-3-carboxylic acid, reference compound] | 0.1 µg/mL (≈ 0.286 µM) | 0.39 µg/mL (≈ 1.12 µM) | 0.012 µg/mL (≈ 0.0343 µM) | 50 µg/mL (≈ 143 µM) | 100 µg/mL (≈ 286 µM) | > 100 µg/mL | 100 µg/mL (≈ 286 µM) | > 100 µg/mL | 25 µg/mL (≈ 71.6 µM) | > 100 µg/mL | 12.5 µg/mL (≈ 35.8 µM) | > 100 µg/mL | > 100 µg/mL | 25 µg/mL (≈ 71.6 µM) | 50 µg/mL (≈ 143 µM) | 100 µg/mL (≈ 286 µM) | 50 µg/mL (≈ 143 µM) | 100 µg/mL (≈ 286 µM) | > 100 µg/mL | 100 µg/mL (≈ 286 µM) | MIC [3]: 1.56 µg/mL (≈ 4.46 µM); MIC (Proteus vulgaris HX-19): 0.025 µg/mL (≈ 0.0716 µM); MIC [4]: 0.05 µg/mL (≈ 0.143 µM); MIC ([5]; Staphylococcus aureus, 209P, 18 h, read-out: MIC): 0.1 µg/mL (≈ 0.286 µM); MIC [6]: 0.39 µg/mL (≈ 1.12 µM); MIC ([7]; Staphylococcus aureus, MRSA, 18 h, read-out: MIC): 12.5 µg/mL (≈ 35.8 µM); MIC [8]: 0.1 µg/mL (≈ 0.286 µM); MIC [9]: 0.2 µg/mL (≈ 0.572 µM)
CC1Sc2c(C(=O)O)c(=O)c3cc(F)c(-c4ccc(N)cc4)cc3n21 (stereo not shown) [Example 4, 7-(4-Aminophenyl)-6-fluoro-1-methyl-4-oxo-4H-[1,3]thia-zeto[3,2-a]quinoline-3-carboxylic acid] | ≤ 0.006 µg/mL | 0.05 µg/mL (≈ 0.14 µM) | 0.025 µg/mL (≈ 0.0702 µM) | 0.2 µg/mL (≈ 0.561 µM) | 0.78 µg/mL (≈ 2.19 µM) | 1.56 µg/mL (≈ 4.38 µM) | 0.78 µg/mL (≈ 2.19 µM) | 1.56 µg/mL (≈ 4.38 µM) | 0.78 µg/mL (≈ 2.19 µM) | 1.56 µg/mL (≈ 4.38 µM) | 0.78 µg/mL (≈ 2.19 µM) | 1.56 µg/mL (≈ 4.38 µM) | 1.56 µg/mL (≈ 4.38 µM) | 0.78 µg/mL (≈ 2.19 µM) | 0.78 µg/mL (≈ 2.19 µM) | 0.78 µg/mL (≈ 2.19 µM) | 0.78 µg/mL (≈ 2.19 µM) | 0.78 µg/mL (≈ 2.19 µM) | 0.78 µg/mL (≈ 2.19 µM) | 0.78 µg/mL (≈ 2.19 µM) | MIC [3]: 0.2 µg/mL (≈ 0.561 µM); MIC (Proteus vulgaris HX-19): 0.012 µg/mL (≈ 0.0337 µM); MIC [4]: 0.1 µg/mL (≈ 0.281 µM); MIC [5]: 0.012 μ g/ml; MIC [6]: ≤ 0.006 µg/mL; MIC [7]: ≤ 0.006 μ g/ml; MIC [8]: ≤ 0.006 µg/mL; MIC [9]: ≤ 0.006 µg/mL
NC1CCN(c2nc3c(cc2F)c(=O)c(C(=O)O)cn3-c2ccc(F)cc2F)C1 (stereo not shown) [TFLX, tosufloxacin, reference compound] | – | – | – | > 100 µg/mL | > 100 µg/mL | > 100 µg/mL | > 100 µg/mL | > 100 µg/mL | > 100 µg/mL | > 100 µg/mL | 12.5 µg/mL (≈ 30.9 µM) | > 100 µg/mL | > 100 µg/mL | > 100 µg/mL | > 100 µg/mL | > 100 µg/mL | > 100 µg/mL | > 100 µg/mL | > 100 µg/mL | > 100 µg/mL | –
